Data published in paper PMC9578396, “Intrinsic Antibacterial Activity of Xeruborbactam In Vitro: Assessing Spectrum and Mode of Action” (Antimicrobial Agents and Chemotherapy, 2022).
Converted amounts (≈) assume the structure as drawn. Like-named read-outs stand apart in the source and are kept apart here.

Legend:
Assay type in all cases: cell-based
Enterococcus faecalis = assay: MIC, Enterococcus faecalis
From the text: (§1) Bacterial isolates were subjected to broth microdilution susceptibility testing, performed according to Clinical and Laboratory Standards Institute (CLSI) methods ([46]), using panels prepared in-house. Meropenem was purchased from Sandoz, and all other antibiotics were from Sigma-Aldrich. Xeruborbactam was synthesized at Qpex Biopharma, San Diego, CA. Avibactam was purchased from eNovation Chemicals LLC, Bridgewater, NJ, USA; zidebactam was from MedKoo Biosciences, Inc., Morrisville, NC, and nacubactam was from Advanced ChemBlocks, Hayward, CA. Durlobactam was synthesized at Acme Bioscience, Palo Alto, CA, USA.

Staphylococcus aureus = assay: MIC, Staphylococcus aureus (MSSA, MRSA)
From the text: as §1

Klebsiella pneumoniae = assay: microbe, parasite or virus in culture; conditions: Klebsiella pneumoniae
From the text: (§2) (i) Panels of engineered bacterial strains containing various combinations of porin and efflux mutations were used. The construction of all the strains used in the study is described in detail in references, [44], and [45]. (ii) KPC-producing clinical isolates and their derivatives that lost KPC plasmids were used also. These strains and their origins are described in the Table S2. (iii) Finally, KPC-producing clinical isolates enriched in strains with porin mutations were used. The mutations identified include various deletions, insertions, nonsense mutations, and decreased expression. Most of the isolates were obtained from JMI Laboratories or International Health Management Associates (IHMA); they were collected in the course of global surveillance studies.
as §1, with “Meropenem was purchased from Sandoz, and all other antibiotics were from Sigma-Aldrich.” left out

Streptococcus pneumoniae = assay: MIC, Streptococcus pneumoniae; conditions: Streptococcus pneumoniae, read-out: MIC
From the text: as §1

Acinetobacter baumannii = assay: Broth microdilution MIC (CLSI), Acinetobacter baumannii; conditions: Acinetobacter baumannii
From the text: as §2
as §1, with “Meropenem was purchased from Sandoz, and all other antibiotics were from Sigma-Aldrich.” left out

Escherichia coli = assay: Broth microdilution MIC (CLSI), Escherichia coli; conditions: Escherichia coli
From the text: as §2
as §1, with “Meropenem was purchased from Sandoz, and all other antibiotics were from Sigma-Aldrich.” left out

Pseudomonas aeruginosa = assay: Broth microdilution MIC (CLSI), Pseudomonas aeruginosa; conditions: Pseudomonas aeruginosa
From the text: as §2
as §1, with “Meropenem was purchased from Sandoz, and all other antibiotics were from Sigma-Aldrich.” left out

[1] = tested on: Enterobacter cloacae species complex; assay: Broth microdilution MIC (CLSI), Enterobacter cloacae; conditions: Enterobacter cloacae, read-out: MIC
From the text: as §1

SMILES: C[C@H]1COc2c(N3CCN(C)CC3)c(F)cc3c(=O)c(C(=O)O)cn1c23 [Levofloxacin]
- MIC (Enterococcus faecalis; efs003): 0.5 µg/mL (≈ 1.38 µM)
- MIC (Enterococcus faecalis; efs004): 1 µg/mL (≈ 2.77 µM)
- MIC (Enterococcus faecalis; efs005): 1 µg/mL (≈ 2.77 µM)
- MIC (Enterococcus faecalis; efs006): 1 µg/mL (≈ 2.77 µM)
- MIC (Enterococcus faecalis; efs007): 1 µg/mL (≈ 2.77 µM)
- MIC (Enterococcus faecalis; efs026): 0.5 µg/mL (≈ 1.38 µM)
- MIC (Enterococcus faecalis; efs071): 32 µg/mL (≈ 88.6 µM)
- MIC (Enterococcus faecalis; efs072): 16 µg/mL (≈ 44.3 µM)
- MIC (Enterococcus faecalis; efs073): 1 µg/mL (≈ 2.77 µM)
- MIC (Enterococcus faecalis; efs090): 32 µg/mL (≈ 88.6 µM)
- MIC (Enterococcus faecalis; efs091): 32 µg/mL (≈ 88.6 µM)
- MIC (Enterococcus faecalis; efs092): 32 µg/mL (≈ 88.6 µM)
- MIC (Enterococcus faecalis; efs093): 16 µg/mL (≈ 44.3 µM)
- MIC (Enterococcus faecalis; efs094): 32 µg/mL (≈ 88.6 µM)
- MIC (Enterococcus faecalis; efs095): 2 µg/mL (≈ 5.53 µM)
- MIC (Enterococcus faecalis; efs096): 32 µg/mL (≈ 88.6 µM)
- MIC (Staphylococcus aureus; Staphylococcus aureus, ATCC 29213 / MSSA): 0.125 µg/mL (≈ 0.346 µM)
- MIC (Staphylococcus aureus; Staphylococcus aureus, MRSA): 0.125 µg/mL (≈ 0.346 µM)
- MIC (Staphylococcus aureus; Staphylococcus aureus, MRSA, sa001, MRSA, read-out: MIC): 8 µg/mL (≈ 22.1 µM)
- MIC (Staphylococcus aureus; Staphylococcus aureus, MRSA, sa010, MRSA, read-out: MIC): 8 µg/mL (≈ 22.1 µM)
- MIC (Staphylococcus aureus; Staphylococcus aureus, MRSA, sa013, MRSA, read-out: MIC): 0.25 µg/mL (≈ 0.692 µM)
- MIC (Staphylococcus aureus; Staphylococcus aureus, MRSA, sa148, MRSA, read-out: MIC): 16 µg/mL (≈ 44.3 µM)
- MIC (Staphylococcus aureus; Staphylococcus aureus, MRSA, sa150, MRSA, read-out: MIC): 8 µg/mL (≈ 22.1 µM)
- MIC (Staphylococcus aureus; Staphylococcus aureus, MRSA, sa151, MRSA, read-out: MIC): 16 µg/mL (≈ 44.3 µM)
- MIC (Staphylococcus aureus; Staphylococcus aureus, MRSA, sa153, MRSA, read-out: MIC): 16 µg/mL (≈ 44.3 µM)
- MIC (Staphylococcus aureus; Staphylococcus aureus, MRSA, sa278, MRSA, read-out: MIC): 32 µg/mL (≈ 88.6 µM)
- MIC (Staphylococcus aureus; Staphylococcus aureus, MRSA, sa279, MRSA, read-out: MIC): 2 µg/mL (≈ 5.53 µM)
- MIC (Staphylococcus aureus; Staphylococcus aureus, MRSA, sa280, MRSA, read-out: MIC): 2 µg/mL (≈ 5.53 µM)
- MIC (Staphylococcus aureus; Staphylococcus aureus, MRSA, sa281, MRSA, read-out: MIC): 32 µg/mL (≈ 88.6 µM)
- MIC (Staphylococcus aureus; Staphylococcus aureus, MSSA): 0.125 µg/mL (≈ 0.346 µM)
- MIC (Staphylococcus aureus; Staphylococcus aureus, MSSA, sa006, MSSA, read-out: MIC): 0.06 µg/mL (≈ 0.166 µM)
- MIC (Staphylococcus aureus; Staphylococcus aureus, MSSA, sa008, MSSA, read-out: MIC): 0.25 µg/mL (≈ 0.692 µM)
- MIC (Staphylococcus aureus; Staphylococcus aureus, MSSA, sa011, MSSA, read-out: MIC): 0.25 µg/mL (≈ 0.692 µM)
- MIC (Staphylococcus aureus; Staphylococcus aureus, MSSA, sa012, MSSA, read-out: MIC): 0.25 µg/mL (≈ 0.692 µM)
- MIC (Staphylococcus aureus; sa002, MSSA): 0.125 µg/mL (≈ 0.346 µM)
- MIC (Staphylococcus aureus; sa003, MSSA): 0.125 µg/mL (≈ 0.346 µM)
- MIC (Staphylococcus aureus; sa004, MSSA): 0.125 µg/mL (≈ 0.346 µM)
- MIC (Staphylococcus aureus; sa005, MSSA): 0.125 µg/mL (≈ 0.346 µM)
- MIC (Staphylococcus aureus; sa007, MSSA): 0.125 µg/mL (≈ 0.346 µM)
- MIC (Staphylococcus aureus; sa009, MSSA): 0.125 µg/mL (≈ 0.346 µM)
- MIC (Staphylococcus aureus; sa152, MRSA): 0.125 µg/mL (≈ 0.346 µM)
- MIC (Klebsiella pneumoniae; strain KPM1026a, read-out: MIC): 0.06 µg/mL
- MIC (Streptococcus pneumoniae; sp001): 0.5 µg/mL (≈ 1.38 µM)
- MIC (Streptococcus pneumoniae; sp002): 0.5 µg/mL (≈ 1.38 µM)
- MIC (Streptococcus pneumoniae; sp003): 1 µg/mL (≈ 2.77 µM)
- MIC (Streptococcus pneumoniae; sp004): 1 µg/mL (≈ 2.77 µM)
- MIC (Streptococcus pneumoniae; sp005): 0.5 µg/mL (≈ 1.38 µM)
- MIC (Streptococcus pneumoniae; sp006): 0.5 µg/mL (≈ 1.38 µM)
- MIC (Streptococcus pneumoniae; sp007): 1 µg/mL (≈ 2.77 µM)
- MIC (Streptococcus pneumoniae; sp008): 0.5 µg/mL (≈ 1.38 µM)
- MIC (Streptococcus pneumoniae; sp009): 1 µg/mL (≈ 2.77 µM)
- MIC (Streptococcus pneumoniae; sp117): 2 µg/mL (≈ 5.53 µM)
- MIC (Streptococcus pneumoniae; sp118): 1 µg/mL (≈ 2.77 µM)
- MIC (Streptococcus pneumoniae; sp119): 1 µg/mL (≈ 2.77 µM)
- MIC (Streptococcus pneumoniae; sp120): 1 µg/mL (≈ 2.77 µM)
- MIC (Streptococcus pneumoniae; sp121): 1 µg/mL (≈ 2.77 µM)
- MIC (Streptococcus pneumoniae; sp122): 32 µg/mL (≈ 88.6 µM)
- MIC (Streptococcus pneumoniae; sp123): 0.5 µg/mL (≈ 1.38 µM)
- MIC (Streptococcus pneumoniae; sp125): 1 µg/mL (≈ 2.77 µM)
- MIC (Streptococcus pneumoniae; sp126): 1 µg/mL (≈ 2.77 µM)

SMILES: NCCONC(=O)[C@@H]1CC[C@@H]2CN1C(=O)N2OS(=O)(=O)O [Nacubactam]
- MIC (Acinetobacter baumannii; strain AB1007, wild type, read-out: MIC): > 256 µg/mL
- MIC (Acinetobacter baumannii; strain ACM1013, ΔadeIJK): > 256 µg/mL
- MIC (Acinetobacter baumannii; strain ACM1014, ΔadeABC): > 256 µg/mL
- MIC (Acinetobacter baumannii; strain ACM1015, ΔadeIJK ΔadeABC): > 256 µg/mL
- MIC (Acinetobacter baumannii; strain ACM1027, adeN (AdeIJK overexpression)): > 256 µg/mL
- MIC (Acinetobacter baumannii; strain ACM1030, adeS (AdeABC overexpression)): > 256 µg/mL
- MIC (Escherichia coli; strain ECM5497, wild type, read-out: MIC): 4 µg/mL
- MIC (Escherichia coli; strain ECM6001, ΔacrB): 4 µg/mL
- MIC (Escherichia coli; strain ECM6502, marR (AcrAB overexpression)): 2 µg/mL
- MIC (Pseudomonas aeruginosa; strain PAM1020, wild type, read-out: MIC): 128 µg/mL
- MIC (Pseudomonas aeruginosa; strain PAM1032, nalB (MexAB-OprM overexpression)): 128 µg/mL
- MIC (Pseudomonas aeruginosa; strain PAM1033, nfxB (MexCD-OprJ overexpression)): 32 µg/mL
- MIC (Pseudomonas aeruginosa; strain PAM1034, nfxC (MexEF-OprN overexpression)): 128 µg/mL
- MIC (Pseudomonas aeruginosa; strain PAM1106, mexA::Tet): 128 µg/mL
- MIC (Pseudomonas aeruginosa; strain PAM1154, oprM::Hg): 128 µg/mL
- MIC (Klebsiella pneumoniae; strain KPM1026a, wild type, read-out: MIC): 8 µg/mL
- MIC (Klebsiella pneumoniae; strain KPM1027, ramR, read-out: MIC): 4 µg/mL
- MIC (Klebsiella pneumoniae; strain KPM1171, ramR ompK36_1171, read-out: MIC): > 64 µg/mL
- MIC (Klebsiella pneumoniae; strain KPM2040, ompK36_2040, read-out: MIC): > 64 µg/mL
- MIC (Klebsiella pneumoniae; strain KPM2600, ΔompK35): 8 µg/mL
- MIC (Klebsiella pneumoniae; strain KPM2613, ΔompK35 ompK36_2040): > 64 µg/mL
- MIC (Klebsiella pneumoniae; strain KPM2696, ΔacrB): 2 µg/mL

SMILES: CN(C)c1cc(NC(=O)CNC(C)(C)C)c(O)c2c1C[C@H]1C[C@H]3[C@H](N(C)C)C(O)=C(C(N)=O)C(=O)[C@@]3(O)C(O)=C1C2=O [Tigecycline]
- MIC ([1]; clinical isolate ECL1057, OmpK35 FN, OmpK36 NF): 8 µg/mL (≈ 13.7 µM)
- MIC ([1]; clinical isolate ECL1079, OmpK35 NF, OmpK36 NF): 4 µg/mL (≈ 6.83 µM)
- MIC ([1]; clinical isolate ECL1126, OmpK35 FN, OmpK36 FN): 2 µg/mL (≈ 3.41 µM)
- MIC ([1]; clinical isolate ECL1131, OmpK35 NF, OmpK36 FN): 2 µg/mL (≈ 3.41 µM)
- MIC (Escherichia coli; clinical isolate EC1078, OmpK35 NF, OmpK36 NF, read-out: MIC): 0.5 µg/mL
- MIC (Escherichia coli; clinical isolate EC1081, OmpK35 FN, OmpK36 FN, read-out: MIC): 0.5 µg/mL
- MIC (Escherichia coli; clinical isolate EC1085, OmpK35 FN, OmpK36 FN, read-out: MIC): 0.25 µg/mL
- MIC (Escherichia coli; clinical isolate EC1088, OmpK35 FN, OmpK36 FN, read-out: MIC): 0.125 µg/mL
- MIC (Escherichia coli; clinical isolate EC1097, OmpK35 FN, OmpK36 FN, read-out: MIC): 1 µg/mL
- MIC (Escherichia coli; clinical isolate EC1098, OmpK35 NF, OmpK36 FN, read-out: MIC): 1 µg/mL
- MIC (Escherichia coli; clinical isolate EC1119, OmpK35 NF, OmpK36 NF, read-out: MIC): 4 µg/mL
- MIC (Escherichia coli; clinical isolate EC1121, OmpK35 NF, OmpK36 FN, read-out: MIC): 0.25 µg/mL
- MIC (Klebsiella pneumoniae; clinical isolate KP1004, OmpK35 NF, OmpK36 FN, read-out: MIC): 1 µg/mL
- MIC (Klebsiella pneumoniae; clinical isolate KP1070, OmpK35 NF, OmpK36 FN, read-out: MIC): 1 µg/mL
- MIC (Klebsiella pneumoniae; clinical isolate KP1074, OmpK35 NF, OmpK36 PFN (GD), read-out: MIC): 0.5 µg/mL
- MIC (Klebsiella pneumoniae; clinical isolate KP1093, OmpK35 NF, OmpK36 PFN (GD), read-out: MIC): 1 µg/mL
- MIC (Klebsiella pneumoniae; clinical isolate KP1251, OmpK35 NF, OmpK36 FN, read-out: MIC): 1 µg/mL
- MIC (Klebsiella pneumoniae; clinical isolate KP1274, OmpK35 FN, OmpK36 FN, read-out: MIC): 1 µg/mL
- MIC (Klebsiella pneumoniae; clinical isolate KP1463, OmpK35 NF, OmpK36 NF, read-out: MIC): 1 µg/mL
- MIC (Klebsiella pneumoniae; clinical isolate KP1469, OmpK35 NF, OmpK36 NF, read-out: MIC): 4 µg/mL
- MIC (Klebsiella pneumoniae; clinical isolate KP1598, OmpK35 NF, OmpK36 PFN (GD), read-out: MIC): 4 µg/mL
